# Read-outs that look alike come from different tables or passages of the source.
# How the values were obtained:
# S. Aureus Smith = test: In vitro antibacterial activity, MIC (modified Autotiter method); assay type: cell-based, Staphylococcus aureus; conditions: Staphylococcus aureus, 20 h, 18-20 hours at 37° C.; read-out: MIC S. Aureus Smith
# How it was run: (§1)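 Autotiter-based broth dilution, modified from Goss: 1,000 mcg./ml. stock, twofold steps in sterile water, then inoculated 2x semisynthetic medium (glucose) dispensed automatically. Final range 500–0.06 mcg./ml.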
# E. coli 100/B22 = test: as above; assay type: cell-based, Escherichia coli; conditions: Escherichia coli, 100/B22, 20 h, read-out: MIC E. coli 100/B22, 18-20 hours at 37° C.
# How it was run: as §1
# E. coli AB1932-1 = test: as above; assay type: cell-based, Escherichia coli; conditions: Escherichia coli, AB19321, 20 h, 18-20 hours at 37° C.; read-out: MIC E. coli AB1932-1
# How it was run: as §1
# E. coli Vogel = test: as above; assay type: cell-based, Escherichia coli; conditions: Escherichia coli, 20 h, 18-20 hours at 37° C.; read-out: MIC E. coli Vogel
# How it was run: as §1
# K. pneum. 39645 = test: as above; assay type: cell-based, Klebsiella pneumoniae; conditions: Klebsiella pneumoniae, 20 h, 18-20 hours at 37° C.; read-out: MIC K. pneum. 39645
# How it was run: as §1
# P. mirab. MGH-1 = test: as above; assay type: cell-based, Proteus mirabilis; conditions: Proteus mirabilis, 20 h, 18-20 hours at 37° C.; read-out: MIC P. mirab. MGH-1
# How it was run: as §1
# Ps. aerug. MGH-2 = test: as above; assay type: cell-based, Pseudomonas aeruginosa; conditions: Pseudomonas aeruginosa, 20 h, 18-20 hours at 37° C.; read-out: MIC Ps. aerug. MGH-2
# How it was run: as §1
# S. pyogen. C203 = test: as above; assay type: cell-based, Streptococcus pyogenes; conditions: Streptococcus pyogenes, 20 h, 18-20 hours at 37° C.; read-out: MIC S. pyogen. C203
# How it was run: as §1
# A. niger 16404 = test: In vitro antifungal activity, MIC (modified Autotiter method); assay type: cell-based, Aspergillus niger; conditions: Aspergillus niger, 16404, 20 h, 18-20 hours at 37° C.; read-out: MIC A. niger 16404
# How it was run: as §1
# C. albicans 10231 = test: as above; assay type: cell-based, Candida albicans; conditions: Candida albicans, 10231, 20 h, 18-20 hours at 37° C.; read-out: MIC C. albicans 10231
# How it was run: as §1
# C. albicans Wisc. = test: as above; assay type: cell-based, Candida albicans; conditions: Candida albicans, 20 h, 18-20 hours at 37° C.; read-out: MIC C. albicans Wisc.
# How it was run: as §1
# T. menta. 9129 = test: as above; assay type: cell-based, Trichophyton mentagrophytes; conditions: Trichophyton mentagrophytes, 20 h, 18-20 hours at 37° C.; read-out: MIC T. menta. 9129
# How it was run: as §1
# S. Aureus ATCC 6538 = test: Effect of serum on bacteriostatic activity (serial tube dilution test); assay type: cell-based, Staphyloccocus aureus; conditions: for Fold Increase in MIC S. Aureus ATCC 6538: 40% vs 0% horse serum; for MIC: Staphylococcus aureus, ATCC6538
# Procedure: (§2) Antibacterial effectiveness in the presence of serum was determined for representative examples by the standard serial tube dilution test wherein paired comparisons of minimum inhibitory concentrations (MIC) were determined in the absence and in the presence of heat inactivated (30 min. at 56° C.) horse serum (40%) in the test medium. The results are expressed as the fold increase in MIC (mcg./ml.) versus Staphyloccocus aureus and Escherichia coli caused by the presence of serum and are presented in Table B hereinbelow.
# E. Coli ATCC 8739 = test: as above; assay type: cell-based, Escherichia coli; conditions: for Fold Increase in MIC E. Coli ATCC 8739: 40% vs 0% horse serum; for MIC: Escherichia coli, ATCC8739
# Procedure: as §2
# [1] = Acute oral toxicity (ALD50); assay type: in vivo; conditions: mouse, in vivo, po, mice, suspension in 1% gum tragacanth; read-out: 7-Day ALD50
# Procedure: (§3) The acute oral toxicity (ALD50) of several representative examples was determined as follows: Groups of 3 young adult male Swiss-Webster strain albino mice were fasted approximately 4 hours before medication and then medicated once orally by stomach tube.
# [2] = tested on: young adult male Swiss-Webster strain albino mice; test: Acute oral toxicity (ALD50); assay type: in vivo; conditions: suspension in 1% G.T.
# Procedure: as §3
# [3] = 40% heat inactivated horse serum, read-out: MIC S. Aureus ATCC 6538 40% Serum
# [4] = read-out: MIC S. Aureus ATCC 6538 0% Serum
# [5] = 40% heat inactivated horse serum, read-out: MIC E. Coli ATCC 8739 40% Serum
# [6] = read-out: MIC E. Coli ATCC 8739 0% Serum
Compound,MIC (S. Aureus Smith) [µg/mL],MIC (E. coli 100/B22) [µg/mL],MIC (E. coli AB1932-1) [µg/mL],MIC (E. coli Vogel) [µg/mL],MIC (K. pneum. 39645) [µg/mL],MIC (P. mirab. MGH-1) [µg/mL],MIC (Ps. aerug. MGH-2) [µg/mL],MIC (S. pyogen. C203) [µg/mL],MIC (A. niger 16404) [µg/mL],MIC (C. albicans 10231) [µg/mL],MIC (C. albicans Wisc.) [µg/mL],MIC (T. menta. 9129) [µg/mL],Fold Increase in MIC S. Aureus ATCC 6538 (S. Aureus ATCC 6538) [fold],MIC (S. Aureus ATCC 6538; [3]) [µg/mL],MIC (S. Aureus ATCC 6538; [4]) [µg/mL],Fold Increase in MIC E. Coli ATCC 8739 (E. Coli ATCC 8739) [fold],MIC (E. Coli ATCC 8739; [5]) [µg/mL],MIC (E. Coli ATCC 8739; [6]) [µg/mL],LD50 at 168 h [1] [mg/kg],Mortality 7 Days ([2]; 125 mg/kg oral),other results
"CCCCCCCCCNc1cc[n+](CCCCCCCC[n+]2ccc(NCCCCCCCCC)cc2)cc1 [Example 29C, 1,8-bis-[4-(nonylamino)-1-pyridinium]octane dibromide]",1,1.95,1.95,3.9,1.95,3.9,7.8,1.95,7.8,3.9,3.9,1.95,16,7.8,0.5,16,62.5,3.9,> 1000,0/3,Mortality 24 Hrs ([2]; 125 mg/kg oral): 0/3; Mortality 7 Days ([2]; 250 mg/kg oral): 0/3; Mortality 24 Hrs ([2]; 250 mg/kg oral): 0/3; Mortality 7 Days ([2]; 500 mg/kg oral): 0/3; Mortality 24 Hrs ([2]; 500 mg/kg oral): 0/3; Mortality 7 Days ([2]; 1000 mg/kg oral): 0/3; Mortality 24 Hrs ([2]; 1000 mg/kg oral): 0/3
"CCCCC(CC)CNc1cc[n+](CCCCCCCCCCCC[n+]2ccc(NCC(CC)CCCC)cc2)cc1 (stereo not drawn) [Example 41C, 1,12-bis-[4-(2-ethylhexylamino)-1-pyridinium]dodecane dibromide]",0.5,1,1,1,1.95,3.9,3.9,0.5,3.9,1,1,1,32,7.8,0.25,64,62.5,1,> 1000,0/3,Mortality 24 Hrs ([2]; 125 mg/kg oral): 0/3; Mortality 7 Days ([2]; 250 mg/kg oral): 0/3; Mortality 24 Hrs ([2]; 250 mg/kg oral): 0/3; Mortality 7 Days ([2]; 500 mg/kg oral): 0/3; Mortality 24 Hrs ([2]; 500 mg/kg oral): 0/3; Mortality 7 Days ([2]; 1000 mg/kg oral): 0/3; Mortality 24 Hrs ([2]; 1000 mg/kg oral): 0/3

# — US4206215A, “Antimicrobial bis-[4-(substituted-amino)-1-pyridinium]alkanes” (Sterling Drug Inc., priority 1977, dated 1980)
